The values below come from patent US20060166999A1, “Use of microsomal triglyceride transfer protein (MTP) inhibitors for reducing the number of postprandial triglyceride-rich lipoprotein particles (PPTRL)” (Bayer Aktiengesellschaft, priority 2000, published 2006).

One assay deals with atherosclerotic plaques. The settings on record: mouse test; Zaiss et al., Circulation 100 (18, Suppl. I):258 Abstr. 1343 (1999); cited from earlier work.
The next assay deals with ApoE-knockout mice. In words: Long-term feeding experiment with ApoE-knockout mice. In kind it is in vivo. The settings on record: ApoE-knockout mice on fat-containing Western diet; 5 ppm with the feed; after 13 months; over half of the untreated mice were dead. On the procedure:
Long-Term Feeding Experiment with ApoE-Knockout Mice
ApoE-knockout mice received a fat-containing diet (0.15% cholesterol, 21.4% crude fat, 19% casein; “Western diet”). The compound of Example 48 was administered in a proportion of 5 ppm with the feed to the treated group, while the control group received the food without active ingredient. After 13 months, over half of the untreated mice were dead, whereas 23 of 25 animals in the treated group were still alive.
It is known from the literature that the ApoE-knockout mice used die from myocardial infarctions and manifestations of neuronal degeneration [Caligiuri, G., et al., Proc. Natl. Acad. Sci. USA, 96, 6920-6924 (1999); Walker, L. C. Am. J. Pathol., 151, (5), 1371-1377 81997)].

In the case of implitapide, in the assay on atherosclerotic plaques, the “formation of atherosclerotic plaques” value is “prevents the formation of atherosclerotic plaques”.

Take `Cc1cc(C)c2c3ccccc3n(Cc3ccc([C@@H](C(=O)N[C@@H](CO)c4ccccc4)C4CCCC4)cc3)c2n1` [Example 48, (2S)-2-Cyclopentyl-2-[4-(2,4-dimethyl-pyrido[2,3-b]indol-9-ylmethyl)-phenyl]-N-(2-(1R)-hydroxy-1-phenyl-ethyl)-acetamide]: the “animals in the treated group still alive” value in the assay on ApoE-knockout mice is 23 of 25.
